Earlier results, collected in patent publication US20190151045A1, “Device and Methods for Disinfecting Dental Lines” (Toppen Medical Dental LLC, priority 2017, published 2019).
Where two headings read alike, the source gives them in different places.

Conditions: dissipates into molecular oxygen, 0.5 mg/L ozone in dental water line

## O=[O+][O-] [ozone]
  half-life (t1/2) of ozone: ~20 min
Listed as Ozone
  half-life (t1/2) of ozone: about 20 min
